# In US9458122B2, “Process for purifying crude furan 2,5-dicarboxylic acid using hydrogenation” (Eastman Chemical Company, priority 2012, dated 2016):
# Test: solubility of FDCA in water at different temperatures
# Format: physicochemical
# Settings: ambient pressure, as water temperature increases beyond 130° C. (FIG. 2)
# Procedure: FIG. 2 depicts the solubility of FDCA in water at different temperatures.
# Suitable dissolution temperatures are those effective to dissolve the desired amount of FDCA solids into solution. The hydrogenation solvent composition may be added at (by pre-heating) or heated in the dissolution zone to a temperature of at least 120° C. under a pressure and time sufficient to allow for at least 80 wt. % dissolution, although to reduce the time required for dissolution, it is desirable that the hydrogenation solvent composition temperature is at least 130° C., or at least 135° C., or at least 140° C., or at least 150° C.
compound,measurement,value
"O=C(O)c1ccc(C(=O)O)o1 [FDCA, Furan 2,5-dicarboxylic acid]",solubility of FDCA in water,increases dramatically
